Experimental data taken from PMC8534003, “The Chemokine-Based Peptide, CXCL9(74-103), Inhibits Angiogenesis by Blocking Heparan Sulfate Proteoglycan-Mediated Signaling of Multiple Endothelial Growth Factors” (Cancers, 2021).
Where no end group is shown, it is not given here. TAMRA = 5(6)-carboxytetramethylrhodamine

How the values were obtained:
[1] = system: human microvascular endothelial cells (HMVECs); experiment: xCELLigence chemotaxis assay (HMVEC migration); format: cell-based; settings: EGF 10 ng/mL, FGF-2 30 ng/mL or VEGF165 10 ng/mL in lower chamber
Description: To evaluate the effect of the CXCL9-derived peptides on growth factor-induced endothelial cell migration, the xCELLigence® real-time cell analyzer (RTCA DP) system (ACEA Biosciences, Inc.; San Diego, CA, USA) was used. First, 160 µL MCDB131 medium (Gibco) supplemented with 0.4% (v/v) FCS (control medium) or 160 µL control medium with 30 ng/mL FGF-2, 10 ng/mL VEGF165 or 10 ng/mL EGF were added to the lower chamber of a cell invasion/migration (CIM)-Plate (ACEA Biosciences, Inc.). After assembly of the lower and upper chamber, 50 µL of serum-free MCDB131 medium was added in the upper wells. Following equilibration of the plate at 37 °C for 1 h, HMVECs were added in the upper chamber at 4 × 10^4 cells in 100 µL/well. CXCL9(74-103) or CXCL9(86-103) was added together with the cells in the upper compartment at a concentration of 0.3 or 3 µM. The assembled CIM-Plate was left at room temperature for 30 min to allow the cells to settle onto the membrane. Finally, the plate was placed in the instrument at 37 °C to monitor cell migration for 15 h. Cell migration from one compartment to the other was recorded (one recording every minute) as changes in electrical impedance. These changes were converted into cell indices, as a measure of cell migration.

[2] = system: human microvascular endothelial cells (HMVECs); experiment: Endothelial cell proliferation assay (MTT or ATP lite); format: cell-based; settings: EGF, VEGF165 5 ng/mL or FGF-2 3 ng/mL as single stimulus
Description: The ability of the CXCL9-derived peptides to inhibit growth factor-induced proliferation of endothelial cells was assessed. HMVECs were seeded at 5 × 10^3 cells/well in EBM™-2 medium containing 1% (v/v) FCS (proliferation medium). After settling of the cells, they were stimulated with EGF, VEGF165 (both 5 ng/mL) or FGF-2 (3 ng/mL) as a single stimulus or in combination with CXCL9(86-103) or CXCL9(74-103) at 0.3 or 3 µM in proliferation medium or left untreated. HMVECs were also treated with 0.3 or 3 µM of CXCL9(74-103) or 3 µM of CXCL9(86-103) alone to assess the effect of CXCL9-derived peptide treatment on spontaneous proliferation. After 3 to 4 days, a 3-(4,5-dimethylthiazol-2-yl)-2,5-diphenyl tetrazolium bromide (MTT) or ATP lite assay was performed. The ATP lite assay was performed according to the manufacturer’s instructions (Perkin Elmer, Waltham, MA). When MTT was used as substrate, the medium was replaced with 200 µL of MTT solution (RPMI without phenol red containing 0.4 g/L MTT) and the cells were incubated at 37 °C and 5% CO2 in the dark for 4 hours. Then, the MTT solution was discarded and the formed formazan crystals were dissolved in 200 µL acidic propanol [0.04 M HCl, 0.1% (v/v) NP-40 in isopropanol] under continuous shaking in the dark for 10 min. The optical densities were measured at 570 nm and 630 nm (reference wavelength).

[3] = system: phospho-ERK1/2; experiment: Signal transduction assay, EGF-induced ERK phosphorylation in HMVECs (ELISA); format: cell-based, human; settings: EGF 10 ng/mL, 15 min, compared to control (100%), n ≥ 3
Description: HMVECs and MECs were seeded in 6-well plates at 1.25 × 10^5 cells/well in their respective culture medium. Once the cell density reached 70–80% confluency, the cells were starved in serum-free medium overnight. Fifteen minutes prior to stimulation, cells were incubated with various concentrations of CXCL9(74-103) or CXCL9(86-103) in 0.5% (v/v) BSA in MCDB131 or DMEM medium (assay medium for HMVECs and MECs, respectively) at 37 °C. HMVECs and MECs were stimulated with assay medium alone or supplemented with 10 ng/mL EGF or 5 ng/mL murine VEGF165 at 37 °C for 15 or 5 min, respectively. Then, the cells were placed on ice, washed with ice-cold PBS and 90 µL of lysis buffer [1% (v/v) protease inhibitor cocktail, phosphatase inhibitor cocktail 2 and 3 (all Sigma-Aldrich) in 1 mM ethylenediaminetetraacetic acid (EDTA), 0.5% (v/v) Triton™ X-100, 5 mM NaF, 6 M urea in PBS] was added per well. […] The amount of phospho-ERK1/2 in the cell lysates was determined using an ERK1 (Thr202/Tyr204)/ERK2 (Thr185/Tyr187) ELISA duoset (R&D Systems) according to the manufacturer’s instructions. The amount of phosphorylated ERK was normalized to the total protein content in the samples measured by the Pierce™ bicinchoninic acid (BCA) protein assay kit (Thermo Fisher Scientific).

[4] = system: FGF-2-induced angiogenesis, C57BL/6 mice; experiment: In vivo angiogenesis Matrigel plug assay; design: species or system mouse; settings: 180 ng FGF-2 alone, day 7
Description: Six-to-eight-week-old female C57BL/6 mice were anesthetized with a mixture of 2.5 mg/mL xylazine (V.M.D, Inovet, Arendonk, Belgium) and 37.5 mg/mL ketamine (Dechra, Northwich, UK) in PBS by i.p. injection. A vertical dorsal incision was made and an ALZET osmotic pump (model 1007D, DURECT Corporation, Cupertine, CA, USA) filled with 400 µg/100 µL CXCL9(74-103) or 100 µL PBS was subcutaneously (s.c.) implanted. The incision was closed with a surgical suture. Growth factor-reduced Matrigel (Corning Matrigel Growth Factor (GFR) Basement Membrane Matrix, Phenol Red-Free, LDEV-Free; Corning Life Sciences, Amsterdam, The Netherlands) was s.c. injected in the dorsal flank forming a firm plug (600 µL/plug). The Matrigel was either injected as such (control plugs) or supplemented with 300 µg CXCL9(74-103) and/or 180 ng FGF-2. Seven days later, the mice were sacrificed. Thirty minutes before sacrifice, the mice were i.v. injected with 200 µL (25 mg/kg) FITC-labeled 2000 kDa dextran (Sigma-Aldrich) to quantify vessel formation in the Matrigel plugs. Blood was collected through cardiac puncture into heparinized tubes containing 20 µL heparin (5.000 IE/mL, Leo Pharma, Ballerup, Denmark). The blood was centrifuged at 200 g and 4 °C for 10 min, whereafter the supernatant was centrifuged at 3000 g and 4 °C for 10 min. The collected plasma was stored away from light at 4 °C until analysis. The Matrigel plugs were removed and enzymatically and mechanically digested in 1.2 mL dispase (Corning Life Sciences) using an incubation at 37 °C for 1.5 h and the gentleMACS™ Dissociator (Miltenyi Biotec, Bergisch Gladbach, Germany). The digested Matrigel plugs were filtered through a 70 µm cell strainer, washed with 1.5 mL FACS buffer [2% (v/v) FCS + 2 mM EDTA in PBS] and centrifuged at 300 g and 4 °C for 7 min. The supernatant (SN) was centrifuged again at 300 g and 4 °C for 7 min and the SN was retained away from light at 4 °C until analysis. The pellet was resuspended in 1 mL FACS buffer, the cells were counted and used for flow cytometry. The antibodies used to identify endothelial cells were anti-mouse CD45-APC (clone 30-F11, eBioscience, Thermo Fisher Scientific), anti-mouse CD146-PE (clone ME-9F1) and anti-mouse Pan-endothelial Cell Antigen-BV711 (clone MECA-32) antibodies (both BD Biosciences). Mice experiments were approved by the Ethical Committee of KU Leuven (project number P199/2018).

[5] = system: HMVEC spheroids; experiment: Spheroid sprouting assay; format: cell-based, human; settings: FGF-2 10 ng/mL, 16 hours
Description: A 1:5 mixture of endothelial cells (4 × 10^4 cells/mL) and methylcellulose (Sigma-Aldrich, Saint Louis, MO, USA; 12 mg/mL in EBM™-2 basal medium) in EBM™-2 cell culture medium was prepared. Drops of 1 × 10^3 HMVECs were plated on a petri dish and allowed to form single spheroids in hanging droplets at 37 °C, 5% CO2 for 24 h. Spheroids were collected, sedimented by centrifugation and resuspended in a mixture of 24 mg/mL methylcellulose in basal EBM™-2, 1 mg/mL collagen type I (BD Biosciences, San Jose, CA, USA), 2.5 mg/mL NaHCO3 and 10 mM NaOH. The suspension was plated in a 96-well plate and the collagen was allowed to polymerize at 37 °C, 5% CO2 for 30 min. Spheroids were left untreated or stimulated with 0.3 or 3 µM of CXCL9(74-103) or 3 µM of CXCL9(86-103) for 15 min prior to addition of 10 ng/mL FGF-2 or 10 ng/mL EGF in EBM™-2 + 3% (v/v) FCS. In some experiments, HMVECs were pretreated with heparinase II (vide infra). After 16 hours, spheroid sprouting was assessed with an inverted Axiovert 200M microscope (Zeiss, Germany) through a 10× objective. The average number of sprouts was calculated and the average sprout length per spheroid was measured using Fiji software.
Sprouting experiments examining the dependency on HS binding for the inhibitory action of CXCL9(74-103) were performed as described above (vide supra). […]

[6] = system: cell surface HS on HMVECs; experiment: Cellular HS binding of TAMRA-labeled CXCL9(74-103), flow cytometry; design: species or system human; settings: 1 representative of 3 experiments
Description: CXCL9(74-103) binding to cellular HS was assessed via flow cytometry. HMVECs were either left untreated or incubated with 0.75 U/mL heparinase II (Sigma-Aldrich) at 37 °C for 2 h. Cells were harvested and left at room temperature for 1 h to recuperate, they were then placed on ice and centrifuged. After centrifugation (300 g, 4 °C, 7 min) and resuspension in PBS, 1 × 10^5 cells per condition were stained with 3, 0.6 or 0.12 nM TAMRA-labeled CXCL9(74-103). To verify downregulation of HS expression, cells were stained with mouse anti-HS Ab (clone F58-10E4, Cat No 370255-S; Amsbio, Abingdon, UK) and R-PE goat anti-mouse IgM Ab (Cat No 115-116-075; Jackson ImmunoResearch, Westgrove, PA, USA). Flow cytometric analysis was performed using the BD LSRFortessa™ X-20 flow cytometer and FlowJo software (both BD Biosciences).

Q: What does the source list for “EGF: human recombinant EGF (R&D Systems), stimulus”?
A: enhancement of migration by growth factor alone [1]: significant enhancement of endothelial cell migration; enhancement of proliferation by growth factor alone [2]: significant enhancement of proliferation; phospho-ERK content [3]: 247%

Q: With “FGF-2: human recombinant FGF-2 (R&D Systems), stimulus” as the substance, how does the “CD146+MECA-32+ cell population, FGF-2 compared to control” value [4] read?
A: ~3 fold

Q: And the “fluorescence ratio, FGF-2 plug compared to control” value [4]?
A: doubled the fluorescence ratio compared to the control

Q: What about the “number of cells inside plug, FGF-2 compared to control” value [4] of the same substance?
A: ~3 fold

Q: And the “enhancement of migration by growth factor alone” value [1]?
A: significant enhancement of endothelial cell migration

Q: And the “enhancement of proliferation by growth factor alone” value [2]?
A: significant enhancement of proliferation

Q: What about the “sprouting in response to FGF-2 alone” value [5] of the same substance?
A: pronounced endothelial sprouting

Q: What does the source list for “TAMRA-labeled CXCL9(74-103): CXCL9(74-103) fluorescently labeled at the NH2-terminus with 5(6)-carboxytetramethylrhodamine ({TAMRA}-KKKQKNGKKHQKKKVLKVRKSQRSRQKKTT; UniProt Q07325 96-125, looked up, fragment)”?
A: binding to untreated HMVECs ([6]; 3, 0.6 or 0.12 nM TAMRA-labeled peptide): bound CXCL9(74-103) in a concentration-dependent manner; binding to heparinase II-treated HMVECs ([6]; heparinase II 0.75 U/mL, 37 °C, 2 h, 3, 0.6 or 0.12 nM): bound CXCL9(74-103) less efficiently compared to cells with intact HS
